In brackets after ≈: the same amount, converted by molar mass. Where two headings read alike, the source gives them in different places.
Legend:
[1] = tested on: macrolide-resistant strain of MRSA; assay: Cellular accumulation of azithromycin by LC-MS/MS; assay type: cell-based, Staphylococcus aureus; conditions: azithromycin 512 μg/mL, 10 minutes contact
Procedure: A method to measure azithromycin accumulation into a macrolide-resistant strain of MRSA was adapted from a protocol described in Richter et al., Nature 545, pp. 299-304 (2017). Liquid chromatography with tandem mass spectroscopy (LC-MS/MS) was used to quantify accumulation of azithromycin in the absence or presence of 50 mM sodium bicarbonate. Azithromycin was used at 512 μg/mL (because the strain is macrolide-resistant). The azithromycin (in the absence or presence of bicarbonate) was in contact with the MRSA for 10 minutes.

P. aeruginosa [2] = assay: Checkerboard azithromycin and sodium bicarbonate against P. aeruginosa; assay type: cell-based, Pseudomonas aeruginosa
Procedure: (§1) Standard checkerboard broth microdilution assays were set-up in 96-well microtiter plates with serially diluted 8 (or 10) concentrations of each drug (or bicarbonate), using the conditions based on CLSI guidelines, as noted above. All checkerboards were conducted in duplicate.
(§2) To assess the dose-dependence of the interaction of azithromycin and bicarbonate, standard microbroth checkerboard techniques in MRSA and P. aeruginosa were used. For both pathogens, enhancement of the activity of azithromycin was further pronounced with increasing concentrations of sodium bicarbonate, as shown in FIG. 34A and FIG. 34B, respectively. This is consistent in various different isolates of the pathogens. Evident within these checkerboards is the inherent resistance of MRSA and P. aeruginosa to azithromycin in the absence of bicarbonate, where >64 μg/mL of azithromycin was required to inhibit growth to less than 10% growth.

S. pneumoniae = assay: Susceptibility testing of conjunctival isolates of S. pneumoniae; assay type: cell-based; conditions: Streptococcus pneumoniae, bicarbonate as in label
Procedure: (§3) This study included one hundred (n=100) clinical isolates of methicillin-resistant Staphylococcus aureus (MRSA) and ninety-two (n=92) clinical isolates of P. aeruginosa. All samples were collected from patients at Hamilton Health Sciences hospitals (Hamilton, Ontario, Canada). Isolates, regardless of site of infection, were selected for study if they were resistant to three or more antibiotics. The isolates were cultured on plates and subsequently tested for antimicrobial susceptibility. Initial culture and antibiotic susceptibility testing were performed by Hamilton General Hospital General Microbiology Laboratory using a VITEK 2 Automated System and its Advanced Expert System (bioMerieux) and were compliant with Clinical & Laboratory Standards Institute (CLSI) antibiotic susceptibility testing formulations. Both quantitative minimum inhibitory concentration (MIC) and CLSI breakpoints were reported for each antibiotic. Additionally, a total of 7 conjunctival-sourced ocular isolates of Streptococcus pneumoniae collected by the International Health Management Associates (IHMA) from various locations in the United States were used in the study.
Antimicrobial sensitivity of the pathogenic strains was determined in compliance with the CLSI protocol. […] Plates were incubated for 18 hours at 37° C. and read at 600 nm on a Tecan, infinite M1000 PRO plate reader. […]

[3] = tested on: methicillin-resistant Staphylococcus aureus (MRSA); assay: Susceptibility testing of MRSA clinical isolates (n=100); assay type: cell-based; conditions: for MIC50 / MIC90 / MIC: Staphylococcus aureus, MRSA
Procedure: as §3
(§4) Antimicrobial sensitivity of the pathogenic strains was determined in compliance with the CLSI protocol. Mueller-Hinton agar plates were used to streak out bacterial species and the direct colony suspension method for inoculum preparation was used to make a suspension of the organism in saline to the density of a McFarland 0.5 turbidity standard. Cation-adjusted Mueller-Hinton broth (CA-MHB) manufactured according to ISO technical standard was used for susceptibility testing in standard 96-well microdilution plates. All antibiotics were purchased as powders from Sigma-Aldrich Canada Co. (Oakville, Canada) and dissolved in appropriate solvent to provide stock solutions as instructed by the manufacturer. Desired test antibiotic solutions were diluted in solvent at a highest test concentration resulting in 256 μg/mL. Where sodium bicarbonate was used, aqueous sterile-filtered sodium bicarbonate solution (7.5% stock) from Sigma-Aldrich Canada Co. (Oakville, Canada) was diluted to the desired concentration in CAMHB. Plates were incubated for 18 hours at 37° C. and read at 600 nm on a Tecan, infinite M1000 PRO plate reader. In accordance with CLSI, methods with appropriate medium supplements for fastidious streptococci (2.5% lysed horse blood, Innovative Research, Inc., Novi, Mich.) were used. […] All MICs in the study were conducted in duplicate.

P. aeruginosa CA1216 = assay: Mouse model of skin infection, neutropenic Balb/c mice; assay type: in vivo, Pseudomonas aeruginosa; conditions: topical 200 μg/mL azithromycin with 40 mM sodium bicarbonate, 25 hours post-infection
Procedure: The effect of bicarbonate on antimicrobial activity of azithromycin against P. aeruginosa was tested in a mouse model of skin infection. Balb/c mice (6-8 weeks old, female) were rendered neutropenic. Mice were treated with cyclophosphamide on day −4 (150 mg/kg) and day −1 (100 mg/kg). The following compositions were prepared: (1) Vehicle: 5 mg/mL MC, 1% DMSO; […] A 10 mg/mL methylcellulose (MC) solution was made from methylcellulose 4000 cp. 100 mL of sterile water was heated in a microwave for 30 seconds prior to adding to MC to improve solubility. The composition was shaken on a vortex for ˜20 min to completely dissolve. The compositions for mouse treatments were prepared as follows: (1) Vehicle: 980 μL sterile water, 20 μL, DMSO, 1 mL MC (10 mg/mL); […] Each composition was vortexed after preparation. […] The inoculum was diluted and plated on LB to quantify colony-forming units (CFU). The mice were weighed. Buprenorphine IP (0.025 mg/kg) was administered as an analgesic. To anaesthetize the mice, isoflurane (gaseous anesthetic) was administered. […] The fur was stripped from the back of the neck using autoclave tape. An area of ˜2 cm^2 was tape stripped by applying and removing the tape 25-30 times. […] Mice were placed into a recovery cage and monitored until the righting reflex returned. Mice were singly housed and monitored after infection. […]

MRSA [4] = assay: Time kill curve; assay type: cell-based, Staphylococcus aureus; conditions: 256 μg/mL azithromycin, 50 mM bicarbonate, 4 hours
Procedure: Experiments to measure the effect of bicarbonate on bactericidal activity of azithromycin were completed according to a Clinical & Laboratory Standards Institute (CLSI) protocol. Briefly, the various treatments were added to logarithmic-phase culture of MRSA in CA-MHB at the concentrations indicated in FIG. 39 and incubated at 37° C. At time points indicated in FIG. 39, cell suspensions were 10-fold serially diluted using sterile PBS buffer and spread on plates of MHB agar. Bacterial colonies were counted after cultivation at 37° C. for 24 hours.

P. aeruginosa [5] = assay: Susceptibility testing of P. aeruginosa clinical isolates (n=92); assay type: cell-based, Pseudomonas aeruginosa; conditions: Pseudomonas aeruginosa, P. aeruginosa, n = 92 isolates, bicarbonate as in label
Procedure: as §3, §4

MRSA [6] = assay: Checkerboard azithromycin and sodium bicarbonate against MRSA; assay type: cell-based, Staphylococcus aureus
Procedure: as §1, §2

S. aureus [7] = assay: FIC index of pentamidine combined with various salts (checkerboard); assay type: cell-based, Staphylococcus aureus; conditions: combination of pentamidine isethionate with each salt; FICI≤0.5 synergy, 1-2 additivity, >4 antagonism
Procedure: (§5) In the following experiments, bacterial cells were cultured in 96-well microtiter plates in cation-adjusted Mueller-Hinton Broth (MHB) for 18 h at 37° C. The main strains used were E. coli (K-12 BW25113) (placed in stationary incubator) and S. aureus (Newman Strain) (incubated at 250 r.p.m). Knockout strains (ΔtolcC and ΔychM) were used from the Keio knockout collection (Baba et al., Construction of Escherichia coli K-12 in-frame, single-gene knockout mutants: the Keio collection. Mol Syst Biol 2, 2006 0008, doi:10.1038/msb4100050 (2006)). For MIC determination and checkerboard analyses, Clinical & Laboratory Standards Institute (CLSI) protocol was used. […] DiSC3 loading of S. aureus cells was performed as previously described (Farha et al., Collapsing the proton motive force to identify synergistic combinations against Staphylococcus aureus. Chemistry & biology 20, 1168-1178, doi:10.1016/j.chembiol.2013.07.006 (2013)). CCCP concentration of 20 μM was used. pH adjustments were made by addition of HCl or NaOH. INT assay and ATP bioluminescence assays were performed as previously described (Farha et al., Collapsing the proton motive force to identify synergistic combinations against Staphylococcus aureus. Chemistry & biology 20, 1168-1178, doi:10.1016/j.chembiol.2013.07.006 (2013)). For chemical-genomic studies, the Keio library was grown overnight in cation-adjusted MHB broth, in 384-well plates. From these, treatment plates (25 mM sodium bicarbonate, or a sterile water control) were inoculated and grown for 15 hours at 37° C., in a stationary incubator. Data was normalized according to Mangat et al (Mangat et al., Rank ordering plate data facilitates data visualization and normalization in high-throughput screening. J Biomol Screen 19, 1314-1320, doi:10.1177/1087057114534298 (2014)), with gene products and GO terms mined from EcoCyc. The GFP promoter library (Keseler et al., EcoCyc: fusing model organism databases with systems biology. Nucleic Acids Res 41, D605-612, doi:10.1093/nar/gks1027 (2013)) was grown for 18 hours at ambient temperature with the same inoculation strategy as with the Keio collection. The analysis pipeline of Zaslaver et al (Zaslaver et al., A comprehensive library of fluorescent transcriptional reporters for Escherichia coli. Nat Methods 3, 623-628, doi:10.1038/nmeth895 (2006)) was used to generate maps of promoter activity, from which lists of promoters with increased or decreased activity were compiled.

Acinetobacter baumannii = assay: MIC determination against Acinetobacter baumannii; assay type: cell-based; conditions: Acinetobacter baumannii
Procedure: as §5

Pseudomonas aeruginosa = assay: MIC determination against Pseudomonas aeruginosa; assay type: cell-based
Procedure: as §5, with “The GFP promoter library (Keseler et al., EcoCyc: fusing model organism databases with systems biology. Nucleic Acids Res 41, D605-612, doi:10.1093/nar/gks1027 (2013)) was grown for 18 hours at ambient temperature with the same inoculation strategy as with the Keio collection. The analysis pipeline of Zaslaver et al (Zaslaver et al., A comprehensive library of fluorescent transcriptional reporters for Escherichia coli. Nat Methods 3, 623-628, doi:10.1038/nmeth895 (2006)) was used to generate maps of promoter activity, from which lists of promoters with increased or decreased activity were compiled.” left out

S. aureus [8] = assay: microbe, parasite or virus in culture; conditions: Staphylococcus aureus
E. coli [9] = assay: microbe, parasite or virus in culture; assay type: cell-based, Escherichia coli
E. coli [10] = conditions: 25 mM sodium bicarbonate
Procedure: as §5

Enterococcus faecium = tested on: Enterococcus faecium
Procedure: as §5

S. aureus [11] = conditions: S. aureus grown with 25 mM sodium bicarbonate vs untreated
Procedure: as §5

Klebsiella pneumoniae = assay: MIC determination against Klebsiella pneumoniae; assay type: cell-based
Procedure: as §5, with “The GFP promoter library (Keseler et al., EcoCyc: fusing model organism databases with systems biology. Nucleic Acids Res 41, D605-612, doi:10.1093/nar/gks1027 (2013)) was grown for 18 hours at ambient temperature with the same inoculation strategy as with the Keio collection. The analysis pipeline of Zaslaver et al (Zaslaver et al., A comprehensive library of fluorescent transcriptional reporters for Escherichia coli. Nat Methods 3, 623-628, doi:10.1038/nmeth895 (2006)) was used to generate maps of promoter activity, from which lists of promoters with increased or decreased activity were compiled.” left out

S. aureus [12] = conditions: 25 mM sodium bicarbonate, BCECF-AM
Procedure: S. aureus cells were loaded with the pH sensitive dye BCECF-AM and were washed and resuspended in PBS. Following baseline readings, PBS (grey circles) or 25 mM sodium bicarbonate (black circles) were added at the arrow and fluorescence measured over time. A standard curve for intracellular pH calibration was used to calculate intracellular pH.

[13] = increasing concentrations of sodium bicarbonate
[14] = MRSA isolates, in the presence of 50 mM bicarbonate
[15] = n = 100 isolates, bicarbonate as in label

CC[C@H]1OC(=O)[C@H](C)[C@@H](O[C@H]2C[C@@](C)(OC)[C@@H](O)[C@H](C)O2)[C@H](C)[C@@H](O[C@@H]2O[C@H](C)C[C@H](N(C)C)[C@H]2O)[C@](C)(O)C[C@@H](C)CN(C)[C@H](C)[C@@H](O)[C@]1(C)O [Azithromycin]
increase in accumulation in the presence of 50 mM bicarbonate [1]: approximately 2.5 fold | concentration required to inhibit growth to less than 10% growth (P. aeruginosa [2]; in the absence of bicarbonate): > 64 µg/mL | dose-dependence of the interaction with sodium bicarbonate (P. aeruginosa [2]; [13]): enhancement | MIC (S. pneumoniae; macrolide-resistant S. pneumoniae strain, read-out: MIC, #1186268 (R)): 32 µg/mL (≈ 42.7 µM) | MIC (S. pneumoniae; macrolide-susceptible S. pneumoniae strain, read-out: MIC, #1173373 (S)): 0.25 µg/mL (≈ 0.334 µM) | eradication rate ([3]; MRSA isolates, 50 mM bicarbonate added): 90% | eradication rate ([3]; MRSA isolates, without bicarbonate): 7% | MIC50 [3, 14]: 1 µg/mL | MIC90 [3, 14]: 2 µg/mL | MIC50 [3, 15]: 128 µg/mL (≈ 171 µM) | MIC90 [3, 15]: > 256 µg/mL | MIC ([3]; n = 100 isolates, bicarbonate as in label, read-out: Maximum MIC obtained): > 256 µg/mL | MIC ([3]; n = 100 isolates, bicarbonate as in label, read-out: Minimum MIC obtained): 1 µg/mL (≈ 1.34 µM) | effect of bicarbonate on antimicrobial activity in vivo (CFU) (P. aeruginosa CA1216): enhanced | bactericidal action in the presence vs absence of bicarbonate (MRSA [4]): superior bactericidal action | MIC50 (P. aeruginosa [5]): 64 µg/mL (≈ 85.4 µM) | MIC90 (P. aeruginosa [5]): 256 µg/mL (≈ 342 µM) | MIC (P. aeruginosa [5]; read-out: Maximum MIC obtained): > 256 µg/mL | MIC (P. aeruginosa [5]; read-out: Minimum MIC obtained): 0.5 µg/mL (≈ 0.668 µM) | concentration required to inhibit growth to less than 10% growth (MRSA [6]; in the absence of bicarbonate): > 64 µg/mL | dose-dependence of the interaction with sodium bicarbonate (MRSA [6]; [13]): enhancement

O=C([O-])O.[Na+] [Sodium bicarbonate]
FIC Index (with pentamidine in S. aureus) (S. aureus [7]): 0.31 | MIC (Acinetobacter baumannii): 50 mM | MIC (Pseudomonas aeruginosa): >100 mM | MIC (S. aureus [8]): 50 to 100 mM | MIC of dirithromycin in the presence of the salt (E. coli [9]; E. coli, salt at 25 mM, pH adjusted to 7.4): 4 µg/mL | MIC (E. coli [9]; Escherichia coli): 100 mM | reduction of intracellular ATP levels compared to untreated control (E. coli [10]): ~30% | reduction of cellular respiration (E. coli [10]; INT to INT-formazan, 60 min): 70% | MIC (Enterococcus faecium): 50 to 100 mM | uptake of DiSC3(5) (S. aureus [11]): increased uptake | MIC (Klebsiella pneumoniae): 100 mM | change in cytoplasmic pH (S. aureus [12]): rapid cytoplasmic alkalinization
